Reference: US7741350B1 (Cara Therapeutics, Inc., priority 2009, dated 2010)
Read-outs that look alike come from different tables or passages of the source.

What was measured:
[1] = target: human CB2 receptor (hCB2) (Homo sapiens, UniProt P34972); experiment: cAMP assay at human CB2 receptor; format: cell-based; details: hCB2R, maximum measurable range 30 μM
Experimental: (§1) TR-FRET was measured using a 330-380 nm excitation filter, 615 nm and 665 nm emission filters, dichroic minor 380 nm and Z=10 mm. cAMP concentrations in each well were back-calculated from a cAMP standard curve run concurrently during each assay. Each plate contained 16 wells of forskolin stimulated cells and 16 wells of forskolin plus 1 μM CP55,940-treated cells. Concentrations of cAMP were expressed as a percent of the difference of these two groups of wells.

[2] = target: human CB1 receptor (hCB1) (Homo sapiens, UniProt P21554); experiment: cAMP assay at human CB1 receptor; format: cell-based; details: hCB1R; maximum measurable range 30 μM; read-out: EC50 (Potency at Human CB1 determined by cAMP Assay)
Chain of human CB1 receptor (hCB1) (P21554 whole entry): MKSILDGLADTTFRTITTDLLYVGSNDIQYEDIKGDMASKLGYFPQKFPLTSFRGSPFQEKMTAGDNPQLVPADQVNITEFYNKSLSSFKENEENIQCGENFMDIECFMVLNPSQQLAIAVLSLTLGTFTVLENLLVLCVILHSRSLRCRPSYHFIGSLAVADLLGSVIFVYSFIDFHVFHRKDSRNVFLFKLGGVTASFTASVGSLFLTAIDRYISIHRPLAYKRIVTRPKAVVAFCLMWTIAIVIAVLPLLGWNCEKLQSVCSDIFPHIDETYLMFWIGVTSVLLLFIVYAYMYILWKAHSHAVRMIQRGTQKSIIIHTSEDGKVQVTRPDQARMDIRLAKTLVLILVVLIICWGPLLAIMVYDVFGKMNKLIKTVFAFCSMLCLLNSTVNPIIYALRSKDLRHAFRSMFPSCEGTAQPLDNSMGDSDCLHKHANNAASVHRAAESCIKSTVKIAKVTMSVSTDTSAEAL
Experimental: The ability of each of the compounds to act as agonists or inverse agonists at human CB2 and CB1 receptors (hCB2, hCB1, respectively) and at the rat CB2 receptor (rCB2) was determined by measuring changes in intracellular cyclic AMP (cAMP) levels as described in U.S. Pat. No. 7,517,874.
as §1, with “wells. Concentration-response data including EC50 (the concentration of compound producing 50% of the maximal response) and intrinsic activity (the percent maximal activation compared to full activation by CP55, 940) were determined using a four-parameter non-linear regression algorithm (CambridgeSoft Bioassay).” for “wells.”

[3] = EC50 (Potency at Human CB2 determined by cAMP Assay)
[4] = read-out: EC50 (Potency at Human CB2 determined by cAMP Assay)

Chain of human CB2 receptor (hCB2) (P34972 whole entry): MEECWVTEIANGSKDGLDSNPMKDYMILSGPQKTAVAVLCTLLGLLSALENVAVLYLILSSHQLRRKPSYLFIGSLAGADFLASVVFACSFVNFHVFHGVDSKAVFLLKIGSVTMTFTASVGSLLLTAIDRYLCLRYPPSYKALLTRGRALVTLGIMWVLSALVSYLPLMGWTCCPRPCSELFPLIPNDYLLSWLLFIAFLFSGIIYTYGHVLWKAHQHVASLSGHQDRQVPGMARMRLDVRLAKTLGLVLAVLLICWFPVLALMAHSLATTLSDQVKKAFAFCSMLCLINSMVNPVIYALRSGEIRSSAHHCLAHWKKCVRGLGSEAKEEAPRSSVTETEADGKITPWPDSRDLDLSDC

SMILES | EC50 [1, 3] | EC50 [2] | EC50 [1, 4]
CN1CCc2c(c(-c3ccc(F)c(F)c3)nn2C(=O)N[C@@]23C[C@@H]4C[C@@H](C[C@@](O)(C4)C2)C3)C1 [Compound 55] | < 1000 nM | < 1000 nM | 
CC(C)(C)c1csc(NC(=O)n2nc(-c3ccc(F)c(F)c3)c3c2CCOC3)n1 [Compound 56, N-(4-tert-butylthiazol-2-yl)-3-(3,4-difluorophenyl)-6,7-dihydropyrano[4,3-c]pyrazole-1(4H)-carboxamide] |  | < 1000 nM | < 1000 nM
CC(C)(C)c1cc(NC(=O)n2nc(-c3ccc(F)c(F)c3)c3c2CCOC3)no1 [Compound 57] |  | > 1000 nM | < 1000 nM
CNC(=O)[C@@H](NC(=O)n1nc(-c2cc(C(F)(F)F)ccc2F)c2c1CCNC2)C(C)(C)C [Compound 58, (S)—N-(3,3-dimethyl-1-(methylamino)-1-oxobutan-2-yl)-3-(2-fluoro-5-(trifluoromethyl)phenyl)-4,5,6,7-tetrahydro-1H-pyrazolo[4,3-c]pyridine-1-carboxamide] |  | < 1000 nM | > 1000 nM
CC(C)(C)[C@H](NC(=O)n1nc(-c2ccc(F)c(F)c2)c2c1CCOC2)C(=O)N1CC[C@H](O)C1 [Compound 60, 3-(3,4-difluorophenyl)-N—((S)-1-((S)-3-hydroxypyrrolidin-1-yl)-3,3-dimethyl-1-oxobutan-2-yl)-6,7-dihydropyrano[4,3-c]pyrazole-1(4H)-carboxamide] | < 1000 nM | < 1000 nM | 
CNC(=O)[C@@H](NC(=O)n1nc(-c2ccc(F)c(F)c2)c2c1CN(C)CC2)C(C)(C)C [Compound 61, (S)-3-(3,4-difluorophenyl)-N-(3,3-dimethyl-1-(methylamino)-1-oxobutan-2-yl)-6-methyl-4,5,6,7-tetrahydro-1H-pyrazolo[3,4-c]pyridine-1-carboxamide] | < 1000 nM | < 1000 nM | 
CNC(=O)[C@@H](NC(=O)n1nc(-c2ccc(F)c(F)c2)c2c1CCCN2C)C(C)(C)C [Compound 62, (S)-3-(3,4-difluorophenyl)-N-(3,3-dimethyl-1-(methylamino)-1-oxobutan-2-yl)-4-methyl-4,5,6,7-tetrahydro-1H-pyrazolo[4,3-b]pyridine-1-carboxamide] | < 1000 nM | < 1000 nM | 
CNC(=O)[C@@H](NC(=O)n1nc(-c2ccc(F)c(F)c2)c2c1CCC1(C2)OCCO1)C(C)(C)C [Compound 63, (S)-3′-(3,4-difluorophenyl)-N-(3,3-dimethyl-1-(methylamino)-1-oxobutan-2-yl)-6′,7′-dihydrospiro[[1,3]dioxolane-2,5′-indazole]-1′(4′H)-carboxamide] | < 1000 nM | < 1000 nM | 
CNC(=O)[C@@H](NC(=O)n1nc(-c2cc(F)ccc2F)c2c1CCN(C)C2)C(C)(C)C [Compound 64, (S)-3-(2,5-difluorophenyl)-N-(3,3-dimethyl-1-(methylamino)-1-oxobutan-2-yl)-5-methyl-4,5,6,7-tetrahydro-1H-pyrazolo[4,3-c]pyridine-1-carboxamide] |  | < 1000 nM | > 1000 nM
CCN1CCc2c(c(-c3cc(F)ccc3F)nn2C(=O)N[C@H](C(=O)NC)C(C)(C)C)C1 [Compound 65, (S)-3-(2,5-difluorophenyl)-N-(3,3-dimethyl-1-(methylamino)-1-oxobutan-2-yl)-5-ethyl-4,5,6,7-tetrahydro-1H-pyrazolo[4,3-c]pyridine-1-carboxamide] | < 1000 nM | < 1000 nM | 
CN1CCc2c(c(-c3cc(F)ccc3F)nn2C(=O)N[C@H](CO)C(C)(C)C)C1 [Compound 66, (S)-3-(2,5-difluorophenyl)-N-(1-hydroxy-3,3-dimethylbutan-2-yl)-5-methyl-4,5,6,7-tetrahydro-1H-pyrazolo[4,3-c]pyridine-1-carboxamide] |  | < 1000 nM | > 1000 nM
CNC(=O)[C@@H](NC(=O)n1nc(-c2ccc(F)c(F)c2)c2c1CCC(NC)C2)C(C)(C)C (stereo partly drawn) [Compound 68, 3-(3,4-difluorophenyl)-N—((S)-3,3-dimethyl-1-(methylamino)-1-oxobutan-2-yl)-5-(methylamino)-4,5,6,7-tetrahydro-1H-indazole-1-carboxamide] | < 1000 nM | < 1000 nM | 
CNC(=O)[C@@H](NC(=O)n1nc(-c2ccc(F)c(F)c2)c2c1CCCCN2C)C(C)(C)C [Compound 69, (S)-3-(3,4-difluorophenyl)-N-(3,3-dimethyl-1-(methylamino)-1-oxobutan-2-yl)-4-methyl-5,6,7,8-tetrahydropyrazolo[4,3-b]azepine-1(4H)-carboxamide] | < 1000 nM | < 1000 nM | 
CN1CCc2c(c(-c3cc(F)c(F)cc3F)nn2C(=O)N[C@@H](CO)c2ccccc2)C1 [Compound 70, (R)—N-(2-hydroxy-1-phenylethyl)-5-methyl-3-(2,4,5-trifluorophenyl)-4,5,6,7-tetrahydro-1H-pyrazolo[4,3-c]pyridine-1-carboxamide] |  | < 1000 nM | > 1000 nM
CN1CCc2c(c(-c3cc(F)c(F)cc3F)nn2C(=O)N[C@H](C(=O)O)C(C)(C)C)C1 [Compound 71, (S)-3,3-dimethyl-2-(5-methyl-3-(2,4,5-trifluorophenyl)-4,5,6,7-tetrahydro-1H-pyrazolo[4,3-c]pyridine-1-carboxamido)butanoic acid] |  | > 30000 nM | > 30000 nM
CC(C)C[C@H](NC(=O)[C@@H](NC(=O)n1nc(-c2cc(F)c(F)cc2F)c2c1CCN(C)C2)C(C)(C)C)C(N)=O [Compound 72, N—((S)-1-((S)-1-amino-4-methyl-1-oxopentan-2-ylamino)-3,3-dimethyl-1-oxobutan-2-yl)-5-methyl-3-(2,4,5-trifluorophenyl)-4,5,6,7-tetrahydro-1H-pyrazolo[4,3-c]pyridine-1-carboxamide] |  | > 1000 nM | > 1000 nM
CN1CCc2c(c(-c3cc(F)c(F)cc3F)nn2C(=O)N[C@H](C(=O)NCCC(N)=O)C(C)(C)C)C1 [Compound 73, (S)—N-(1-(3-amino-3-oxopropylamino)-3,3-dimethyl-1-oxobutan-2-yl)-5-methyl-3-(2,4,5-trifluorophenyl)-4,5,6,7-tetrahydro-1H-pyrazolo[4,3-c]pyridine-1-carboxamide] |  | < 1000 nM | > 1000 nM
CN1CCc2c(c(-c3cc(F)c(F)cc3F)nn2C(=O)N[C@H](C(=O)N2CCC[C@H]2C(N)=O)C(C)(C)C)C1 [Compound 74, N—((S)-1-((S)-2-carbamoylpyrrolidin-1-yl)-3,3-dimethyl-1-oxobutan-2-yl)-5-methyl-3-(2,4,5-trifluorophenyl)-4,5,6,7-tetrahydro-1H-pyrazolo[4,3-c]pyridine-1-carboxamide] |  | < 1000 nM | > 1000 nM
CN1CCc2c(c(-c3cc(F)c(F)cc3F)nn2C(=O)N[C@H](C(=O)N2CCC[C@@H]2C(N)=O)C(C)(C)C)C1 [Compound 75, N—((S)-1-((R)-2-carbamoylpyrrolidin-1-yl)-3,3-dimethyl-1-oxobutan-2-yl)-5-methyl-3-(2,4,5-trifluorophenyl)-4,5,6,7-tetrahydro-1H-pyrazolo[4,3-c]pyridine-1-carboxamide] |  | < 1000 nM | > 1000 nM
CNC(=O)[C@@H]1CCCN1C(=O)[C@@H](NC(=O)n1nc(-c2cc(F)c(F)cc2F)c2c1CCN(C)C2)C(C)(C)C [Compound 76, N—((S)-3,3-dimethyl-1-((S)-2-(methyl-carbamoyl)pyrrolidin-1-yl)-1-oxobutan-2-yl)-5-methyl-3-(2,4,5-trifluorophenyl)-4,5,6,7-tetrahydro-1H-pyrazolo[4,3-c]pyridine-1-carboxamide] |  | < 1000 nM | > 1000 nM
CCOC(=O)N1CCN(C(=O)[C@@H](NC(=O)n2nc(-c3cc(F)c(F)cc3F)c3c2CCN(C)C3)C(C)(C)C)CC1 [Compound 77, (S)-ethyl 4-(3,3-dimethyl-2-(5-methyl-3-(2,4,5-trifluorophenyl)-4,5,6,7-tetrahydro-1H-pyrazolo[4,3-c]pyridine-1-carboxamido)butanoyl)piperazine-1-carboxylate] |  | < 1000 nM | > 1000 nM
CN1CCc2c(c(-c3cc(F)c(F)cc3F)nn2C(=O)N[C@H](C(=O)N2CCC[C@H](O)C2)C(C)(C)C)C1 [Compound 78] |  | < 1000 nM | > 1000 nM
CN1CCc2c(c(-c3cc(F)c(F)cc3F)nn2C(=O)N[C@H](C(=O)N2CCC(C(N)=O)CC2)C(C)(C)C)C1 [Compound 79, (S)—N-(1-(4-carbamoylpiperidin-1-yl)-3,3-dimethyl-1-oxobutan-2-yl)-5-methyl-3-(2,4,5-trifluorophenyl)-4,5,6,7-tetrahydro-1H-pyrazolo[4,3-c]pyridine-1-carboxamide] |  | < 1000 nM | > 1000 nM
CN1CCc2c(c(-c3cc(F)c(F)cc3F)nn2C(=O)N[C@H](C(=O)NCCCO)C(C)(C)C)C1 [Compound 80, (S)—N-(1-(3-hydroxypropylamino)-3,3-dimethyl-1-oxobutan-2-yl)-5-methyl-3-(2,4,5-trifluorophenyl)-4,5,6,7-tetrahydro-1H-pyrazolo[4,3-c]pyridine-1-carboxamide] |  | < 1000 nM | > 1000 nM
